Laboratory results: PubChem BioAssay (NCI)
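Briefly, cells in 96-well plates were exposed to five compound concentrations for 48 h, and endpoints were estimated by linear interpolation. GI50 marks 50% less growth. TGI marks complete inhibition of growth.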

Columns and labels:
Experiment in all cases: inhibition of tumour cell growth, NCI panel, 48 h
[1] = test system: A549 NSCLC
[2] = test system: RXF 393 renal
[3] = test system: MDA-MB-231 breast
[4] = test system: MDA-MB-435
[5] = test system: OVCAR-5 ovarian
[6] = test system: NCI-H522 lung
[7] = test system: CCRF-CEM leukemia
[8] = test system: SF-268 CNS
[9] = test system: HOP-92 NSCLC
[10] = test system: IGROV1 ovarian
[11] = test system: NCI-H460 lung
[12] = test system: HCT-116 colon
[13] = test system: UACC-257 melanoma
[14] = test system: NCI-H226 lung
[15] = test system: TK-10 renal
[16] = test system: NCI/ADR-RES ovarian
[17] = test system: SN12C renal
[18] = test system: 786-0 renal
[19] = test system: HCC-2998 colon
[20] = test system: SNB-19 CNS
[21] = test system: MOLT-4 leukemia
[22] = test system: SK-MEL-2 melanoma
[23] = test system: RPMI-8226 leukemia
[24] = test system: SK-MEL-5 melanoma
[25] = test system: MALME-3M melanoma
[26] = test system: MDA-MB-468 breast
[27] = test system: M14 melanoma
[28] = test system: KM12 colon
[29] = test system: HT29 colon

SMILES: COc1ccc(/C=C/c2nc3ccccc3c(=O)n2CC(=O)Nc2ccccc2)cc1
- GI50 [1]: 0.731 µM
- TGI [1]: > 42.7 µM
- GI50 [2]: 2.23 µM
- TGI [2]: 10.6 µM
- GI50 [3]: 2.01 µM
- TGI [3]: 7.54 µM
- GI50 [4]: > 93.4 µM
- TGI [4]: > 100 µM
- GI50 [5]: 6.47 µM
- TGI [5]: > 100 µM
- GI50 [6]: 16.8 µM
- TGI [6]: > 100 µM
- GI50 [7]: > 100 µM
- TGI [7]: > 100 µM
- GI50 [8]: 19.1 µM
- TGI [8]: > 100 µM
- GI50 [9]: 2.78 µM
- TGI [9]: 13.3 µM
- GI50 [10]: 12.6 µM
- TGI [10]: > 100 µM
- GI50 [11]: 2.25 µM
- TGI [11]: > 100 µM
- GI50 [12]: 1.26 µM
- TGI [12]: > 39.4 µM
- GI50 [13]: > 85.1 µM
- TGI [13]: > 100 µM
- GI50 [14]: 2.42 µM
- TGI [14]: 16.4 µM
- GI50 [15]: 2.05 µM
- TGI [15]: 5.43 µM
- GI50 [16]: 4.64 µM
- TGI [16]: > 100 µM
- GI50 [17]: 1.82 µM
- TGI [17]: > 36.6 µM
- GI50 [18]: 1.19 µM
- TGI [18]: 3.18 µM
- GI50 [19]: > 100 µM
- TGI [19]: > 100 µM
- GI50 [20]: 3.74 µM
- TGI [20]: > 73.9 µM
- GI50 [21]: > 100 µM
- TGI [21]: > 100 µM
- GI50 [22]: > 77.8 µM
- TGI [22]: > 100 µM
- GI50 [23]: > 100 µM
- TGI [23]: > 100 µM
- GI50 [24]: > 91.4 µM
- TGI [24]: > 100 µM
- GI50 [25]: 5.2 µM
- TGI [25]: 55.9 µM
- GI50 [26]: 6.23 µM
- TGI [26]: > 53.7 µM
- GI50 [27]: 27 µM
- TGI [27]: > 51 µM
- GI50 [28]: > 100 µM
- TGI [28]: > 100 µM
- GI50 [29]: > 100 µM
- TGI [29]: > 100 µM
